According to ChEMBL document CHEMBL4480380, “Identification and biological evaluation of novel benzothiazole derivatives bearing a pyridine-semicarbazone moiety as apoptosis inducers via activation of procaspase-3 to caspase-3” (Medchemcomm, 2019):
Values belong to the compound of their own block, whether it stands above or below them. The source made the active and inactive calls. The rule behind the calls is not given here.

How the values were obtained:
[1] = system: U-937; experiment: Antiproliferative activity against human procaspase-3 over-expressing U937 cells after 24 hrs by CCK-8 assay; format: functional, cell-based; details: U-937, 24 h
[2] = system: MCF7; experiment: Antiproliferative activity against human MCF7 cells after 24 hrs by CCK-8 assay; format: functional, cell-based; details: MCF7, 24 h
[3] = Selectivity ratio of IC50 for human MCF7 cells to IC50 for human procaspase-3 over-expressing U937 cells; format: functional
[4] = system: U-937; experiment: Induction of apoptosis in human U937 cells assessed as early apoptotic cells at 3.3 uM after 24 hrs by Annexin V-FITC/propidium iodide staining-based flow cytometric analysis (reference value: 4.88%); format: functional
[5] = system: U-937; experiment: Induction of apoptosis in human U937 cells assessed as late apoptotic cells at 3.3 uM after 24 hrs by Annexin V-FITC/propidium iodide staining-based flow cytometric analysis (reference value: 3.27%); format: functional
[6] = system: U-937; experiment: Induction of apoptosis in human U937 cells assessed as early apoptotic cells at 6.6 uM after 24 hrs by Annexin V-FITC/propidium iodide staining-based flow cytometric analysis (reference value: 4.88%); format: functional
[7] = system: U-937; experiment: Induction of apoptosis in human U937 cells assessed as late apoptotic cells at 6.6 uM after 24 hrs by Annexin V-FITC/propidium iodide staining-based flow cytometric analysis (reference value: 3.27%); format: functional
[8] = system: U-937; experiment: Induction of apoptosis in human U937 cells assessed as early apoptotic cells at 3.3 uM after 48 hrs by Annexin V-FITC/propidium iodide staining-based flow cytometric analysis (reference value: 6.16%); format: functional
[9] = system: U-937; experiment: Induction of apoptosis in human U937 cells assessed as late apoptotic cells at 3.3 uM after 48 hrs by Annexin V-FITC/propidium iodide staining-based flow cytometric analysis (reference value: 3.89%); format: functional
[10] = system: U-937; experiment: Induction of apoptosis in human U937 cells assessed as early apoptotic cells at 6.6 uM after 48 hrs by Annexin V-FITC/propidium iodide staining-based flow cytometric analysis (reference value: 6.16%); format: functional
[11] = system: U-937; experiment: Induction of apoptosis in human U937 cells assessed as late apoptotic cells at 6.6 uM after 48 hrs by Annexin V-FITC/propidium iodide staining-based flow cytometric analysis (reference value: 3.89%); format: functional
[12] = system: U-937; experiment: Induction of apoptosis in human U937 cells assessed as caspase-3 activity at 30 uM using Ac-DEVD-AFC as substrate preincubated for 16 hrs followed by substrate addition and measured after 60 mins by fluorescence assay (reference value: 7+/- 1%); format: functional
[13] = biological target: T1, Caspase-3 (Homo sapiens) (UniProt P42574); experiment: Activation of procaspase-3 (unknown origin) at 10 uM using Ac-DEVD-AFC as substrate preincubated for 4 hrs followed by substrate addition and measured after 5 mins by fluorescence assay relative to control
T1 sequence (whole entry): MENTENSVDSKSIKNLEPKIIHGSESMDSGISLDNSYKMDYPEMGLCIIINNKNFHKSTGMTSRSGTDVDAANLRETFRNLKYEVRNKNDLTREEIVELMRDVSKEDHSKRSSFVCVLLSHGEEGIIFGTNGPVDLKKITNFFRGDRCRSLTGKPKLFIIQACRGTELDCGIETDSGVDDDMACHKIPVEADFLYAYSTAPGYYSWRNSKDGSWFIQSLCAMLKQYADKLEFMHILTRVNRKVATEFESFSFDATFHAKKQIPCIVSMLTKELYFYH

[14] = Toxicity in zebrafish AB embryos at 5 to 20 uM measured at 24 to 72 hrs post fertilization by stereo microscopic analysis; design: species or system Danio rerio; details: in vivo
[15] = Toxicity in zebrafish AB embryos at 40 uM after 48 hrs post fertilization by stereo microscopic analysis; design: species or system Danio rerio; details: in vivo
[16] = Toxicity in zebrafish AB embryos assessed as induction of mortality at 40 uM after 72 hrs post fertilization by stereo microscopic analysis; design: species or system Danio rerio; details: in vivo
[17] = organism: Danio rerio; experiment: Induction of apoptosis in zebrafish AB embryos assessed as accumulation of dying cells in head at 40 to 60 uM after 24 hrs post fertilization by acridine orange staining-based fluorescence microscopic analysis; format: functional, organism-based
[18] = organism: Danio rerio; experiment: Induction of apoptosis in zebrafish AB embryos assessed as accumulation of dying cells in cranial neural crest at 40 to 60 uM after 24 hrs post fertilization by acridine orange staining-based fluorescence microscopic analysis; format: functional, organism-based
[19] = organism: Danio rerio; experiment: Induction of apoptosis in zebrafish AB embryos assessed as increase in bax mRNA expression at 40 to 60 uM after 24 hrs post fertilization by RT-PCR analysis; format: functional, organism-based
[20] = Half life in human liver microsomes in presence of NADPH by LC-MS analysis; format: ADME, Microsome
[21] = Half life in rat liver microsomes in presence of NADPH by LC-MS analysis; format: ADME, Microsome
[22] = Half life in mouse liver microsomes in presence of NADPH by LC-MS analysis; format: ADME, Microsome
[23] = Intrinsic clearance in human liver microsomes in presence of NADPH by LC-MS analysis; format: ADME, Microsome; details: read-out: CLH
[24] = Intrinsic clearance in rat liver microsomes in presence of NADPH by LC-MS analysis; format: ADME, Microsome; details: read-out: CLH
[25] = Intrinsic clearance in mouse liver microsomes in presence of NADPH by LC-MS analysis; format: ADME, Microsome; details: read-out: CLH
[26] = system: U-937; experiment: Induction of apoptosis in human U937 cells assessed as early apoptotic cells at 2.6 uM after 24 hrs by Annexin V-FITC/propidium iodide staining-based flow cytometric analysis (reference value: 4.88%); format: functional
[27] = system: U-937; experiment: Induction of apoptosis in human U937 cells assessed as late apoptotic cells at 2.6 uM after 24 hrs by Annexin V-FITC/propidium iodide staining-based flow cytometric analysis (reference value: 3.27%); format: functional
[28] = system: U-937; experiment: Induction of apoptosis in human U937 cells assessed as early apoptotic cells at 5.2 uM after 24 hrs by Annexin V-FITC/propidium iodide staining-based flow cytometric analysis (reference value: 4.88%); format: functional
[29] = system: U-937; experiment: Induction of apoptosis in human U937 cells assessed as late apoptotic cells at 5.2 uM after 24 hrs by Annexin V-FITC/propidium iodide staining-based flow cytometric analysis (reference value: 3.27%); format: functional
[30] = system: U-937; experiment: Induction of apoptosis in human U937 cells assessed as early apoptotic cells at 2.6 uM after 48 hrs by Annexin V-FITC/propidium iodide staining-based flow cytometric analysis (reference value: 6.16%); format: functional
[31] = system: U-937; experiment: Induction of apoptosis in human U937 cells assessed as late apoptotic cells at 2.6 uM after 48 hrs by Annexin V-FITC/propidium iodide staining-based flow cytometric analysis (reference value: 3.89%); format: functional
[32] = system: U-937; experiment: Induction of apoptosis in human U937 cells assessed as early apoptotic cells at 5.2 uM after 48 hrs by Annexin V-FITC/propidium iodide staining-based flow cytometric analysis (reference value: 6.16%); format: functional
[33] = system: U-937; experiment: Induction of apoptosis in human U937 cells assessed as late apoptotic cells at 5.2 uM after 48 hrs by Annexin V-FITC/propidium iodide staining-based flow cytometric analysis (reference value: 3.89%); format: functional

Compound: CC1CCN(Cc2ccc3nc(NC(=O)N/N=C/c4ccccn4)sc3c2)CC1
IC50 [1]: 21.5 µM
IC50 [2]: > 40 µM
Ratio IC50 [3]: 1.6

Compound: CC1CCN(Cc2ccc3nc(NC(=O)NN=C(c4ccccn4)c4ccccn4)sc3c2)CC1
IC50 [1]: 6.6 µM
IC50 [2]: > 40 µM
Ratio IC50 [3]: 6
Activity [4]: 15.85%
Activity [5]: 6.75%
Activity [6]: 19.27%
Activity [7]: 8.5%
Activity [8]: 20.55%
Activity [9]: 9.86%
Activity [10]: 26.89%
Activity [11]: 17.66%
Activity [12]: 114%
Activity [13]: 92.1%
Activity [14]: Non-Toxic
Activity [15]: Toxic
Activity [16]: Toxic
Activity [17]: Active
Activity [18]: Active
Activity [19]: Active
half-life [20]: 79.1 min
half-life [21]: 73.9 min
half-life [22]: 16.7 min
CLint scaled [23]: 22 mL/min/kg
CLint scaled [24]: 33.6 mL/min/kg
CLint scaled [25]: 326 mL/min/kg

Compound: CN(C)Cc1ccc(NC(=O)NN=C(c2ccccc2)c2ccccc2)cc1
IC50 [1]: > 25 µM
IC50 [2]: 12.1 µM
Ratio IC50 [3]: <1
Activity [12]: 28%

Compound: O=C(c1ccc(F)cc1)C1CCN(CCn2c(=O)[nH]c3ccccc3c2=O)CC1 [KETANSERIN]
half-life [20]: 36.1 min
half-life [21]: 14.4 min
half-life [22]: 20.5 min
CLint scaled [23]: 48.2 mL/min/kg
CLint scaled [24]: 173 mL/min/kg
CLint scaled [25]: 267 mL/min/kg

Compound: CCN(CC)Cc1ccc(NC(=O)N/N=C(\C)c2ccccn2)cc1
IC50 [1]: > 40 µM
IC50 [2]: > 40 µM

Compound: C/C(=N\NC(=O)Nc1nc2ccc(CN3CCC(C)CC3)cc2s1)c1cnccn1
IC50 [1]: > 40 µM
IC50 [2]: 11.8 µM
Ratio IC50 [3]: <1

Compound: C/C(=N\NC(=O)Nc1ccc(CN2CCC(C)CC2)cc1)c1cnccn1
IC50 [1]: > 40 µM
IC50 [2]: > 40 µM

Compound: C/C(=N\NC(=O)Nc1nc2ccc(CN3CCC(C)CC3)cc2s1)c1ccccn1
IC50 [1]: 5.2 µM
IC50 [2]: 12.4 µM
Ratio IC50 [3]: 2.3
Activity [26]: 16.16%
Activity [27]: 6.3%
Activity [28]: 19.79%
Activity [29]: 8.15%
Activity [30]: 19.59%
Activity [31]: 9.17%
Activity [32]: 28.06%
Activity [33]: 18.7%
Activity [12]: 99%
Activity [13]: 77.8%
Activity [14]: Non-Toxic
Activity [16]: Toxic
Activity [17]: Active
Activity [18]: Active
Activity [19]: Active
half-life [20]: 77.9 min
half-life [21]: 95.5 min
half-life [22]: 53.6 min
CLint scaled [23]: 22.3 mL/min/kg
CLint scaled [24]: 26 mL/min/kg
CLint scaled [25]: 102 mL/min/kg

Second part, led by results:

IC50 [1]: 24.8 µM
IC50 [2]: > 40 µM
Compound: CCN(CC)Cc1ccc2nc(NC(=O)N/N=C/c3ccccn3)sc2c1
Ratio IC50 [3]: 1.6

IC50 [1]: 9.1 µM
IC50 [2]: > 40 µM
Compound: CCN(CC)Cc1ccc2nc(NC(=O)NN=C(c3ccccn3)c3ccccn3)sc2c1
Ratio IC50 [3]: 4.3
Activity [12]: 119%

IC50 [1]: 7.8 µM
IC50 [2]: > 40 µM
Compound: CN(C)Cc1ccc2nc(NC(=O)NN=C(c3ccccn3)c3ccccn3)sc2c1
Ratio IC50 [3]: 5.1
Activity [12]: 104%

IC50 [1]: > 40 µM
IC50 [2]: > 40 µM
Compound: CCN(CC)Cc1ccc2nc(NC(=O)N/N=C(\C)c3cnccn3)sc2c1

IC50 [1]: > 40 µM
IC50 [2]: 12.3 µM
Compound: CCN(CC)Cc1ccc2nc(NC(=O)N/N=C(\C)c3ccc(F)cc3)sc2c1
Ratio IC50 [3]: <1
Activity [12]: 40%
